Here are results for three compounds from ChEMBL document CHEMBL1201862, “PubChem BioAssay data set” (2004).

The source made the active and inactive calls.

One experiment addresses T1, Caspase-3 (Homo sapiens, UniProt P42574).
T1 sequence (P42574 whole entry): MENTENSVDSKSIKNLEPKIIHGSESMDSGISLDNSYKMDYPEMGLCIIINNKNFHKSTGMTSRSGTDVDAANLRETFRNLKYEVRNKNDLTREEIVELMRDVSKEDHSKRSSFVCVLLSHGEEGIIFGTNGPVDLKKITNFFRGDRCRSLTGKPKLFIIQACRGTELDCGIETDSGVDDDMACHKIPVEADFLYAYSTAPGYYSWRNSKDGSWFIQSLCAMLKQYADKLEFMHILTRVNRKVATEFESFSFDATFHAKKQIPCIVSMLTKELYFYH
It is filed as functional.

In experiment [1] the target is T2, Tyrosyl-DNA phosphodiesterase 2 (Homo sapiens, UniProt O95551).
T2 sequence (O95551 whole entry): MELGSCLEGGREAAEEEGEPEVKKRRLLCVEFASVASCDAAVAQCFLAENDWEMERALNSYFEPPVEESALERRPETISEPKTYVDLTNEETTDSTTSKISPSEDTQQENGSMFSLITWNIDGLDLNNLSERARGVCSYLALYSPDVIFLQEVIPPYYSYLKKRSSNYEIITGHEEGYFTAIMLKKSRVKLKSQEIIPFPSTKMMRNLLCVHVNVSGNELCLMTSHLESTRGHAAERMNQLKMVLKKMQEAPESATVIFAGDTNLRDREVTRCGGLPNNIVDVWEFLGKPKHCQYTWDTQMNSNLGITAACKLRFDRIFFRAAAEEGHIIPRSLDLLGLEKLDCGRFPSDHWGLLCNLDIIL
The experiment in a line: potency against TDP2 phosphodiesterase activity – biochemical, epi absorbance, IC50, dose response (AID 743297).

For experiment [2], the target named is Phosphorylase b kinase gamma catalytic chain, liver/testis isoform (Homo sapiens, UniProt P15735). It is filed as functional.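 Also: PHKG2 measured as one member of a kinome-wide kinase panel.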
Experiment [3] has as its target T3, Serine/threonine-protein kinase D3 (Homo sapiens, UniProt O94806).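 Also: determined within a kinase panel screen, with PRKCN as the panel member.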
T3 sequence (O94806 whole entry): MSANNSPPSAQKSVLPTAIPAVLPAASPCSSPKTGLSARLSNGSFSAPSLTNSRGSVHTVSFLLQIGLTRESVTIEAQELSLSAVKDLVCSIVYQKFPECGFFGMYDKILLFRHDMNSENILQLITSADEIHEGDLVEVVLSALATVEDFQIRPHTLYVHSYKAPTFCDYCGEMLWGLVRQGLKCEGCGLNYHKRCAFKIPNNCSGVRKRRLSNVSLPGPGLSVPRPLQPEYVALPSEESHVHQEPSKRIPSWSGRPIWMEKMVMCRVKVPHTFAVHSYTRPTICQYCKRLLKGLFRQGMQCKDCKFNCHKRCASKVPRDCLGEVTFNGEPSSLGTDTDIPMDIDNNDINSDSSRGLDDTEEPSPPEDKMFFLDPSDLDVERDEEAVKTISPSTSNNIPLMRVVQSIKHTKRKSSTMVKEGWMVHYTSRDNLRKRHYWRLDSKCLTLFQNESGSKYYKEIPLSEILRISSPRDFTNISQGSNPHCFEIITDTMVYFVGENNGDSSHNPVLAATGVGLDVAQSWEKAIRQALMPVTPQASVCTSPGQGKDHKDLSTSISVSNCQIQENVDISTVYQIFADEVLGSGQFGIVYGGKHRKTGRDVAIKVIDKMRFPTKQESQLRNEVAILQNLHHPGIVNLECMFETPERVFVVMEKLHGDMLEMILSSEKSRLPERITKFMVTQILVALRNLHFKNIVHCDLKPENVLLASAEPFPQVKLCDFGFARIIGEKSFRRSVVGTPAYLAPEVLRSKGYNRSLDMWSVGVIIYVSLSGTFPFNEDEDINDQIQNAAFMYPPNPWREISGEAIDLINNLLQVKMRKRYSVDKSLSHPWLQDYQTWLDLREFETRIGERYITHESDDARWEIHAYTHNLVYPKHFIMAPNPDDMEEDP
The format is functional.

The target in a further experiment is Aurora kinase A (Homo sapiens, UniProt O14965). It is filed as functional.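 Also: value from the Navigating the Kinome kinase panel profiling, panel entry STK6.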
The target of experiment [4] is MAP kinase-activated protein kinase 2 (Homo sapiens, UniProt P49137). The format is functional.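 Also: measured as one member of a kinome-wide kinase panel.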
Experiment [5] addresses Tyrosine-protein kinase BTK (Homo sapiens, UniProt Q06187). It is filed as functional.
In experiment [6] the target is Casein kinase II subunit alpha (Homo sapiens, UniProt P68400). The format is functional.
The target in experiment [7] is Tyrosine-protein kinase ITK/TSK (Homo sapiens, UniProt Q08881). It is filed as functional.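 Also: affinity for ITK measured as one member of a broad kinase panel profiling binding across the kinome.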
Experiment [8] addresses Testis-specific serine/threonine-protein kinase 1 (Homo sapiens, UniProt Q9BXA7). It is filed as functional.
In experiment [9] the target is Glycogen synthase kinase-3 alpha (Homo sapiens, UniProt P49840). The format is functional.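 Also: GSK3A result taken from a broad kinome-wide kinase panel.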
The target in experiment [10] is Receptor-type tyrosine-protein kinase FLT3 (Homo sapiens, UniProt P36888). It is filed as functional.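 Also: FLT3 was tested as one member of a kinome-wide kinase panel.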
In experiment [11] the target is Calcium/calmodulin-dependent protein kinase type II subunit beta (Homo sapiens, UniProt Q13554). The format is functional.
The target of experiment [12] is Cyclin-dependent kinase 5 (Homo sapiens, UniProt Q00535). It is filed as functional.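 Also: CDK5 measured as one member of a kinase profiling panel.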
Experiment [13] concerns the target Serine/threonine-protein kinase Nek4 (Homo sapiens, UniProt P51957). It is filed as functional.
Experiment [14] has as its target Cyclin-dependent kinase 1 (Homo sapiens, UniProt P06493). It is filed as functional.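 Also: Kinome-wide panel profiling, with the target listed as panel member CDC2.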
Experiment [15] concerns the target 3-phosphoinositide-dependent protein kinase 1 (Homo sapiens, UniProt O15530). It is filed as functional.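 Also: value comes from the Navigating the Kinome panel, PDPK1 member.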
Experiment [16] addresses BDNF/NT-3 growth factors receptor (Homo sapiens, UniProt Q16620). It is filed as functional.
In experiment [17] the target is Lymphokine-activated killer T-cell-originated protein kinase (Homo sapiens, UniProt Q96KB5). The format is functional.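 Also: value comes from a kinase panel screen in which TOPK was one of the panel members.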
For experiment [18], the target named is Macrophage colony-stimulating factor 1 receptor (Homo sapiens, UniProt P07333). It is filed as functional.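 Also: value comes from the Navigating the Kinome screening panel, CSF1R member.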
Experiment [19] addresses Tyrosine-protein kinase receptor UFO (Homo sapiens, UniProt P30530). It is filed as functional.
Experiment [20] addresses Tyrosine-protein kinase FRK (Homo sapiens, UniProt P42685). The format is functional.
In experiment [21] the target is Serine/threonine-protein kinase 3 (Homo sapiens, UniProt Q13188). It is filed as functional.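 Also: measured as one member of a kinome-wide kinase panel.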
In experiment [22] the target is Serine/threonine-protein kinase TBK1 (Homo sapiens, UniProt Q9UHD2). The experiment in a line: Navigating the Kinome. Panel member name: TBK1. It is filed as functional.
In experiment [23] the target is cAMP-dependent protein kinase catalytic subunit alpha (Homo sapiens, UniProt P17612). It is filed as functional.

Macrophage colony-stimulating factor 1 receptor, sequence (P07333 whole entry): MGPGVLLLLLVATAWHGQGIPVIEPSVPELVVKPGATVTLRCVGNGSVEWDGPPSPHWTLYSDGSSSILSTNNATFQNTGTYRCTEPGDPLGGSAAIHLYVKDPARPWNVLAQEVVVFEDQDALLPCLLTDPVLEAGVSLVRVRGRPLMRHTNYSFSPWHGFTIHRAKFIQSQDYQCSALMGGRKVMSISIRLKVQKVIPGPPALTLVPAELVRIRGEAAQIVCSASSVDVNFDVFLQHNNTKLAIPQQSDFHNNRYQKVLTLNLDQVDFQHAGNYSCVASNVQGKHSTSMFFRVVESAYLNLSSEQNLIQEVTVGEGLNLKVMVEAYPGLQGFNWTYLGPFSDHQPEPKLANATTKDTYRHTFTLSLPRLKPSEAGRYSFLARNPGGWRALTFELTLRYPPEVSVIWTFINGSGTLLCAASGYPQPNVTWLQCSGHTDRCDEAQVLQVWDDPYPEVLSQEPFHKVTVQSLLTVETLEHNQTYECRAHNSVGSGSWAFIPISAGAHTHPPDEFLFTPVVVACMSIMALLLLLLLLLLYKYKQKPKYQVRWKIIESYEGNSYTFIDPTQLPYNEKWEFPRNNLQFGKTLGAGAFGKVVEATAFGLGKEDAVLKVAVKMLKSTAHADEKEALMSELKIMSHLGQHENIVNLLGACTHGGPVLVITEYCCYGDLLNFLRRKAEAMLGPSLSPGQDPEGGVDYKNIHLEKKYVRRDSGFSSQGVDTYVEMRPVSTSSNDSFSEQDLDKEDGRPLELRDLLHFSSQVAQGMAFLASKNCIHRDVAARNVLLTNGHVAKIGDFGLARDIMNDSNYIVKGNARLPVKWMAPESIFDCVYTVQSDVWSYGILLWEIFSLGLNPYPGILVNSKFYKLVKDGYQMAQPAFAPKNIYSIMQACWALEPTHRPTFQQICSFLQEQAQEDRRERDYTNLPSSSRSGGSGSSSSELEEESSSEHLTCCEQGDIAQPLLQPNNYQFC
Aurora kinase A, sequence (O14965 whole entry): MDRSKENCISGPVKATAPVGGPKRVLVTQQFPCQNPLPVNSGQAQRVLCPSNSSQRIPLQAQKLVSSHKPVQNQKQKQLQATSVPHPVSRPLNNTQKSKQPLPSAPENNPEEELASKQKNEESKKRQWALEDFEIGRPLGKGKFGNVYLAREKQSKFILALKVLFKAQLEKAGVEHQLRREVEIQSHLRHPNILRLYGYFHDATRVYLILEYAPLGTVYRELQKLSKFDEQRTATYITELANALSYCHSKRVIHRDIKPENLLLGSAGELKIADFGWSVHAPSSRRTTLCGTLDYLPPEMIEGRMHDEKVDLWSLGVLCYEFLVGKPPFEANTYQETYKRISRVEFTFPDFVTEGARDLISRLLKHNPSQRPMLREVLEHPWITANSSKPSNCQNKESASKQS
Cyclin-dependent kinase 5, sequence (Q00535 whole entry): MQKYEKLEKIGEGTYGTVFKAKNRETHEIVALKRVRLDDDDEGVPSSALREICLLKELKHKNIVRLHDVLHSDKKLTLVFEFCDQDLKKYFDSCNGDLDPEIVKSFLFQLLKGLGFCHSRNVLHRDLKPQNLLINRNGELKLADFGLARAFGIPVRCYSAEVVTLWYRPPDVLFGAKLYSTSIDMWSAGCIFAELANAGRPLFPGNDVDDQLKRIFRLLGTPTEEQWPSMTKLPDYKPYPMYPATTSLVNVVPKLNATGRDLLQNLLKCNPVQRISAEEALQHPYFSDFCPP
Tyrosine-protein kinase BTK, sequence (Q06187 whole entry): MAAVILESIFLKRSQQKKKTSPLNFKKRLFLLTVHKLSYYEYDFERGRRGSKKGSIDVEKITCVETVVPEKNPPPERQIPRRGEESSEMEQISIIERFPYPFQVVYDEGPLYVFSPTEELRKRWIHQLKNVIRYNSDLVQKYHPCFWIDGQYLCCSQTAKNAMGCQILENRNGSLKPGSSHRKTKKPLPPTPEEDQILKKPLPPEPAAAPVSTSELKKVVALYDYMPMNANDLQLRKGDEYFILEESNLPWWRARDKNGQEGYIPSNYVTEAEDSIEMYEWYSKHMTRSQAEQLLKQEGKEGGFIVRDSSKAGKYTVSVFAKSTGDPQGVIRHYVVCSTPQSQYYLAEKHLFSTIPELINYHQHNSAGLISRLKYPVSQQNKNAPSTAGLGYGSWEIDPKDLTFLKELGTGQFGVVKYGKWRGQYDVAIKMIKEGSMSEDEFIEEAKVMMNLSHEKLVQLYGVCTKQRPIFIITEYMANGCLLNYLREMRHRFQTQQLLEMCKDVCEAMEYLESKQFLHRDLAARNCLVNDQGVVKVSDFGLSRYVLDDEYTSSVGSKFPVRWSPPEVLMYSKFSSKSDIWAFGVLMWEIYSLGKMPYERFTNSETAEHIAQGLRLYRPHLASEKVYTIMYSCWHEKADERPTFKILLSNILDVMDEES
Glycogen synthase kinase-3 alpha, sequence (P49840 whole entry): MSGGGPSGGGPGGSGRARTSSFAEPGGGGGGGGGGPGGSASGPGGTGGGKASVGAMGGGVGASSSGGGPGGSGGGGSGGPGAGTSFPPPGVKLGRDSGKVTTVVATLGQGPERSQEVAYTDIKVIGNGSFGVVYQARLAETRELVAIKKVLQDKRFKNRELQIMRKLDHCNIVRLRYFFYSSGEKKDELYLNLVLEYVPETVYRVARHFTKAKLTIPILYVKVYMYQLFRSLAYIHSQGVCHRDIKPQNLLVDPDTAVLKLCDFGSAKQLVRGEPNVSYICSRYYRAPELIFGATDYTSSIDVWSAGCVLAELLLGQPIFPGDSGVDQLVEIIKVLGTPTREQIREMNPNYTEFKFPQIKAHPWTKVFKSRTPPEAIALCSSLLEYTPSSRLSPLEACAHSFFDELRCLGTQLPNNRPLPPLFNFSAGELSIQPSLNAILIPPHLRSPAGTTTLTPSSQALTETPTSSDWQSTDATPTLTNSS
Receptor-type tyrosine-protein kinase FLT3, sequence (P36888 whole entry): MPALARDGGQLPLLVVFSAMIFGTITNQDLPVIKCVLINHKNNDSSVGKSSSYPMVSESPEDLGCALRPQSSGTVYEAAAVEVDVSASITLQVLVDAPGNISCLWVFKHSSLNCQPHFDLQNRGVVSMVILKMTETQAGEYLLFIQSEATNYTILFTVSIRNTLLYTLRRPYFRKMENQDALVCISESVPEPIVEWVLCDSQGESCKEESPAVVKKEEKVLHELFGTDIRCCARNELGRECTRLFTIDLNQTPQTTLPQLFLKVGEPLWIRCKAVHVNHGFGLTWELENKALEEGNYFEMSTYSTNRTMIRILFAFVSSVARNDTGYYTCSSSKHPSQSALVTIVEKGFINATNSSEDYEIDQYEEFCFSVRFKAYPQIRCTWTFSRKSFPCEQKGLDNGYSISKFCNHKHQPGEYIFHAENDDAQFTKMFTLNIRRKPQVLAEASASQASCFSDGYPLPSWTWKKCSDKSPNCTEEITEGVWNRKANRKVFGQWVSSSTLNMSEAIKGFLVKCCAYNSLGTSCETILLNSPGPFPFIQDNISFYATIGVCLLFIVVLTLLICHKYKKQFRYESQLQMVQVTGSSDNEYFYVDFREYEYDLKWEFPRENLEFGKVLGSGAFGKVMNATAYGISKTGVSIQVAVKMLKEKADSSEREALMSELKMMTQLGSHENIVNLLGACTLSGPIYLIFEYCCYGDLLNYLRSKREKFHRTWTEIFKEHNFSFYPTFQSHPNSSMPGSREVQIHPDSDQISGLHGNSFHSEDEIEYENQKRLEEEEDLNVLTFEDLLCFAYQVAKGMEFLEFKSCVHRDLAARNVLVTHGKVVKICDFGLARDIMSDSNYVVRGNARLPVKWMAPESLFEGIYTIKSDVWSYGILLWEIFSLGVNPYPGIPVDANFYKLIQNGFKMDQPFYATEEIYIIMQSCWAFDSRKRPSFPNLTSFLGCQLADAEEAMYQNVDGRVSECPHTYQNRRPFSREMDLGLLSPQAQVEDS
BDNF/NT-3 growth factors receptor, sequence (Q16620 whole entry): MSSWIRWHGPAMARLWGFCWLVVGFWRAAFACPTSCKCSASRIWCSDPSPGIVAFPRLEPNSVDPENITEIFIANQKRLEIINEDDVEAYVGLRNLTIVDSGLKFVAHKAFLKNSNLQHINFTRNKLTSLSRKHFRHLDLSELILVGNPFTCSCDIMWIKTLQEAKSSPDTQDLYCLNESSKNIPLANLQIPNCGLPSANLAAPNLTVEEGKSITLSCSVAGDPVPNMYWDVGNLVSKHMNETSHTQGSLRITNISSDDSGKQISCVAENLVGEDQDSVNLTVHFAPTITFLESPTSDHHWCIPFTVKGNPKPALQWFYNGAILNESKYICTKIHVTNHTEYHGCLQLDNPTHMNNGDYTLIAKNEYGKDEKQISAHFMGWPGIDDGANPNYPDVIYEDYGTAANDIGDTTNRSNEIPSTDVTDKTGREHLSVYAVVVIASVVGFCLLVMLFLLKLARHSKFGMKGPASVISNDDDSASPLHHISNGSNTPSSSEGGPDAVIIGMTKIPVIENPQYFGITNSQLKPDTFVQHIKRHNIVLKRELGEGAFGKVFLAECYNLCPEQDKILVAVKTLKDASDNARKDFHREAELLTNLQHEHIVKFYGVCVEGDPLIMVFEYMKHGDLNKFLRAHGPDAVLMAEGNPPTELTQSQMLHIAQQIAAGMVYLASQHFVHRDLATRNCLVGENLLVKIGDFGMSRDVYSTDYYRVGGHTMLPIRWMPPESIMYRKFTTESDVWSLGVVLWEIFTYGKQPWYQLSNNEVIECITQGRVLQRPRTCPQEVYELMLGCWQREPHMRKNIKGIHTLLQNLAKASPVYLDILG
Casein kinase II subunit alpha, sequence (P68400 whole entry): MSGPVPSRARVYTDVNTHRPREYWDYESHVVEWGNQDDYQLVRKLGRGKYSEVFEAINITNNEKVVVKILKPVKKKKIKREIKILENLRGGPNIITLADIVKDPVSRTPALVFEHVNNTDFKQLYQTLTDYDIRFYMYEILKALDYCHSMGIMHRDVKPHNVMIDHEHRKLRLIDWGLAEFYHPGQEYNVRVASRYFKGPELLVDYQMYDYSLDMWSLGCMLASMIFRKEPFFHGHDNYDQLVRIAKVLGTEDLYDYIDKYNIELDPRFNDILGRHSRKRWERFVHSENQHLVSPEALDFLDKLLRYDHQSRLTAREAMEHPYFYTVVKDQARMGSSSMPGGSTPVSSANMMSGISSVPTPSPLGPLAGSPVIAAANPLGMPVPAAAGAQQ

`COc1ccc(-n2c(NC(=O)c3ccco3)c(C#N)c3nc4ccccc4nc32)cc1`: the IC50 at Caspase-3 is 26600 nM (active); in [1], > 128000 nM (inactive).
With `Cc1n[nH]c2ccc(-c3cncc(OCC(N)Cc4ccc(Cl)c(Cl)c4)c3)cc12` (stereo not drawn), the Ki in experiment [2] is 1000 nM (active); in experiment [3], 3.98 nM (active); on Aurora kinase A, 1000 nM (active); in [4], 3980 nM (active); in experiment [5], > 1260 nM (inactive); in [6], > 6310 nM (inactive). The Ki in [7] is > 1580 nM (inactive); in experiment [8], 100 nM (active); in [9], 100 nM (active); in experiment [10], 100 nM (active); in experiment [11], 251 nM (active); in [12], 12.6 nM (active). Further, the Ki in [13] is 126 nM (active); in experiment [14] it was 50.1 nM (active); in experiment [15] it was 2000 nM (active); in experiment [16], > 5010 nM (inactive); in [17], 3980 nM (active); in experiment [18], > 2510 nM (inactive). Also, the Ki in experiment [19] was 200 nM (active); in [20], > 2510 nM (inactive); in experiment [21] it was 63.1 nM (active).
Turning to `[2H]C([2H])([2H])Oc1cccc(C(C)NC(=O)c2sc(-c3ccncc3)nc2C)c1` (stereo not drawn), the Ki in experiment [22] is > 3160 nM (inactive); in experiment [3], > 3980 nM (inactive); on Aurora kinase A, > 1580 nM (inactive); in experiment [5], > 6310 nM (inactive); in experiment [9], 3160 nM (active); in experiment [10] it was > 3160 nM (inactive). For the same compound, the Ki was > 3160 nM (inactive) in experiment [12], > 3980 nM (inactive) in [16], > 1260 nM (inactive) in experiment [23] and > 2510 nM (inactive) in experiment [18].
